Measured values published in paper PMC11440508, “Dually Labeled Neurotensin NTS1R Ligands for Probing Radiochemical and Fluorescence-Based Binding Assays” (Journal of Medicinal Chemistry, 2024).

Biological target: NTS1R (Homo sapiens, UniProt P30989)
Experiment: Radiochemical association and dissociation kinetics, suspended CHO-hNTS1R cells
Assay type: binding
Method: Binding of both ligands, [^3H]13 and [^3H]18, was studied at adherent and suspended intact CHO-hNTS1R cells, and binding of [^3H]13 was additionally studied using CHO-hNTS1R cell membrane preparations (saturation and competition binding, kinetic studies). Furthermore, saturation binding experiments were performed with both ligands at intact adherent HT-29 cells. All experiments were performed in triplicate except for dissociation experiments performed with suspended cells in 50 mL flacon tubes (performed in duplicate). To reduce radioligand consumption in the aforementioned experiments, [^3H]13 and [^3H]18 were 1:1 diluted with 13 and 18, respectively (for the purpose of easier reading these mixtures are denoted "[^3H]13" and "[^3H]18"in the following). All samples were incubated at 23 ± 1 °C in the dark under gentle shaking (incubation times are outlined below). DPBS1 served as binding buffer throughout. In the case of experiments performed with cell suspensions, CHO-hNTS1R cells were seeded in T75 culture flasks 3–4 days prior to the experiment. On the day of the experiment, cells were detached by trypsinization, suspended in DPBS1 and centrifuged at 200g at rt for 5 min. Cells were resuspended in binding buffer and the cell density was adjusted to 1.5 × 10^5 to 2.5 × 10^5 cells/mL. Samples involving suspended cells or membrane preparations were prepared and incubated in 96-well polypropylene plates (Brand 701330, Wertheim, Germany) or in 50 mL polypropylene falcon tubes (Sarstedt), and the same filtration procedure for separating free radioligand from cell- or membrane bound radioligand was applied for all kind of binding experiments: after completed incubation, cells or cell membranes were collected on GF/C filter mats (0.26 mm; Whatman, Maidstone, U.K.) (pretreated with 0.3% polyethylenimine for 30 min) using an in-house manufactured harvester for 96-well plates (precision engineering workshop of the University of Regensburg, Regensburg, Germany), and the wells of the plate and the cells on the filter mat were immediately washed twice with ice-cold PBS (2 × 200 μL) (note: when samples were incubated in falcon tubes, 200-μL aliquots were transferred to the wells of a 96-well polypropylene plate after the incubation period, immediately followed by the filtration procedure). Filter pieces for each well were punched out and transferred into 1450–401 96-well sample plates (PerkinElmer, Rodgau, Germany), followed by the addition of Rotiscint Routine (Carl Roth, Karlsruhe, Germany) (200 μL). The plates were sealed with transparent sealing tape (Greiner EASYseal, part no. 676001, Greiner Bio-One) and shaken in the dark overnight before measurement of the radioactivity (dpm) using a MicroBeta2 plate counter equipped with six pairs of photomultiplier tubes (PerkinElmer).
To start the association, 20 μL of an 18 nM solution of [^3H]13 or 20 μL of a 12 nM solution of [^3H]18 in DPBS1 (final concentrations: 1.8 or 1.2 nM) were added. The samples of the different time points were prepared in reversed order (longest incubation time first, shortest incubation time last) so that the cells of all samples could be harvested simultaneously. The time span for sample incubation was 1–180 min. Adherent cells: 96-well white/clear bottom plates with adherent cells were prefilled with DPBS1 (160 μL) after initial washing of the cells. […] To start the association, 20 μL of a 13 nM solution of [^3H]13 or 20 μL of an 11 nM solution of [^3H]18 in DPBS1 (final concentrations: 1.3 or 1.1 nM) were added. When the incubation time was reached, all liquid was removed by suction followed by washing (2 × ice-cold PBS) and cell lysis. The samples of the different time points were prepared in reversed order (longest incubation time first, shortest incubation time last) so that the cells of all samples could be washed and lysed simultaneously. […]

Chain of NTS1R (P30989 whole entry): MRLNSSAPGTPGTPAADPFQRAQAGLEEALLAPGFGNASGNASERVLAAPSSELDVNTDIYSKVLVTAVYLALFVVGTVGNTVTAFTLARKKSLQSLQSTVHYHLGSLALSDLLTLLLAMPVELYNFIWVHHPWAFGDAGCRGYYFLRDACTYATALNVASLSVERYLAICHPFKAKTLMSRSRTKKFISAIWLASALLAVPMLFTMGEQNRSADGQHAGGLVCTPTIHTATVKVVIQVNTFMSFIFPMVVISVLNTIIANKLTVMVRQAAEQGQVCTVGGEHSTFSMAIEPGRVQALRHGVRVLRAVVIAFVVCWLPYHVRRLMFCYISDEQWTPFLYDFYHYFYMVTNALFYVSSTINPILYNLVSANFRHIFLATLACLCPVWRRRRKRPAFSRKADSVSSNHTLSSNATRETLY

Question: What does the source list for CCC(=O)NCCCCNC(=O)NC(=N)NCCC[C@H](NC(=O)[C@@H]1CCCN1C(=O)[C@@H](NC(=O)CCc1cn(CCCNC(=O)c2ccc(-c3c4ccc(=[N+](C)C)cc-4oc4cc(N(C)C)ccc34)c(C(=O)[O-])c2)nn1)C1CCNCC1)C(=O)N[C@@H](CCCNC(=N)N)C(=O)N1CCC[C@H]1C(=O)N[C@@H](Cc1ccc(O)cc1)C(=O)N[C@H](C(=O)N[C@@H](CC(C)C)C(=O)O)[C@@H](C)CC [[^3H]13]?
Answer: koff (suspended CHO-hNTS1R cells (50 mL falcon tubes), 23 °C, read-out: koff [min^–1] (converted)): 0.0006 s⁻¹; kobs(slow) [min^–1] (suspended CHO-hNTS1R cells, biphasic exponential fit): 0.051 ± 0.001 ^b min^–1; kon (suspended CHO-hNTS1R cells, calculated from koff, kobs(fast) and ligand concentration, read-out: kon(fast) [min^–1 nM^–1] (converted)): 1.35e+07 M⁻¹ s⁻¹; Kd (suspended CHO-hNTS1R cells, koff/kon(fast), read-out: Kd(kin)): 44 ± 20 pM; kobs(fast) [min^–1] (suspended CHO-hNTS1R cells, monophasic fit of initial association phase, 1.8 nM [^3H]13 or […] [^3H]18): 1.5 ± 0.3 ^a min^–1; Proportion of fast kinetic component (association) (suspended cells): 21%; Proportion of slow kinetic component (association) (suspended cells): 79%
